The source of these data is ChEMBL document CHEMBL5608201, “Discovery and optimization of thiazole-based quorum sensing inhibitors as potent blockers of Pseudomonas aeruginosa pathogenicity” (Eur J Med Chem, 2024).

Converted amounts (≈) assume the structure as drawn. Bounds are passed on as bounds.

A short description of data set [1]: Kinetic aqueous solubility of the compound in PBS buffer incubated for 5 mins by turbidimetric aqueous solubility assay. Particulars: read-out: Kinetic_solubility. The data set is classed as physicochemical.
A short description of data set [2]: Metabolic stability in mouse liver microsomes assessed as half life at 1 uM measured after 30 mins by HPLC-MS/MS analysis. The class given is ADME, Microsome. For orientation: Microsomes from liver hold many membrane-bound enzymes, among them those of drug oxidation.
Data set [3] concerns Pseudomonas aeruginosa. Briefly: Antivirulence activity against Pseudomonas aeruginosa PA14 assessed as inhibition of pyocyanin biosynthesis incubated for 16 hrs under agitation by photometric analysis. The settings on record: PA14, 16 h. The class given is functional, organism-based.
The target of data set [4] is T1, Transcriptional regulator MvfR (Pseudomonas aeruginosa PA14, UniProt A0A072ZLE6).
T1 sequence (A0A072ZLE6 whole entry): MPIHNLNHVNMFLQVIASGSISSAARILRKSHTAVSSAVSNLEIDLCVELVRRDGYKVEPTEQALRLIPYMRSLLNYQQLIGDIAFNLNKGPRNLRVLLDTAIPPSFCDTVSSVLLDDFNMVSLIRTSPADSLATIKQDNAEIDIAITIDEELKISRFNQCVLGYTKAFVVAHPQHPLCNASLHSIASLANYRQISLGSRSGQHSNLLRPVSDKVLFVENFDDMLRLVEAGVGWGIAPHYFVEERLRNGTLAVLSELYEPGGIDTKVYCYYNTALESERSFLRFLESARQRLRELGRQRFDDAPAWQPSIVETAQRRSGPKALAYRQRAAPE
Briefly: Inverse agonist activity at Pseudomonas aeruginosa PqsR extracted from Escherichia coli Dh5alpha co-expressing lacZ incubated with test compound in presence of pseudomonas quinolone signal (PQS) by ONPG/heterologous reporter gene assay.

A short description of data set [5]: Lipophilicity, log D of the compound. The data set is classed as physicochemical. Particulars: octanol/water.

In general, half-life refers to the time in which the quantity being followed falls by half. For orientation: IC50 means the concentration that inhibits the measured activity by half. As to `N#Cc1ccc(NCc2cnc(-c3ccc(Oc4ccccc4)cc3)s2)nc1`, in data set [1], the solubility kinetic at 5 min stood at 5 µM (≈ 1.92 µg/mL). Further, the half-life at 1 µM in data set [2] stood at 20 min. The 50% inhibitory concentration (IC50) in data set [3] is above 5 µM; in data set [4] it was 0.803 µM.

A word on the logD: it is the decadic logarithm of the distribution of all forms, ionised or not, between an organic phase and buffer at a given pH. Low readings indicate lower lipophilicity, high ones higher lipophilicity. Regarding `CC(C)Oc1ccc(-c2ncc(CNc3cc(C#N)nc(C(F)(F)F)c3)s2)cc1Cl`, the solubility kinetic at 5 min in data set [1] came to 25 µM (≈ 11.3 µg/mL). For the same molecule, in data set [2], the half-life at 1 µM turned out to be 58 min. The logD in data set [5] stood at 5.01. Also, the IC50 amounted to 0.114 µM in data set [3] and 0.019 µM in data set [4].

As to `FC(F)(F)c1cc(NCc2csc(-c3ccc(Oc4ccccc4)cc3)n2)ccn1`, in data set [1], the solubility kinetic at 5 min is 18 µM (≈ 7.69 µg/mL). The half-life at 1 µM in data set [2] was 18 min. This molecule had a logD in data set [5] of 5.04. The IC50 was found to be 1.4 µM in data set [3] and 0.053 µM in data set [4].

Take `FC(F)(F)c1cc(NCc2cc(-c3ccc(Oc4ccccc4)cc3)no2)ccn1`: the solubility kinetic at 5 min in data set [1] is 8 µM (≈ 3.29 µg/mL). In addition, the half-life at 1 µM in data set [2] was 36 min. The same molecule yielded a logD in data set [5] of 5.04. Further, the values for the half-maximal inhibitory concentration (IC50) in data set [3] and in data set [4] were 0.338 µM and 0.03 µM, respectively.

On to `FC(F)(F)c1cc(NCc2nc(-c3ccc(Oc4ccccc4)cc3)cs2)ccn1`, for which the solubility kinetic at 5 min in data set [1] came out at 45 µM (≈ 19.2 µg/mL). The half-life at 1 µM in data set [2] was 13 min. Further, the IC50 was above 5 µM in data set [3] and 0.712 µM in data set [4].

Regarding `FC(F)(F)c1cc(NCc2ncc(-c3ccc(Oc4ccccc4)cc3)s2)ccn1`, the solubility kinetic at 5 min in data set [1] came out at 26 µM (≈ 11.1 µg/mL). Moreover, the half-life at 1 µM in data set [2] stood at 10 min. This molecule also yielded a logD in data set [5] of 5.54. In addition, the results for the IC50 in data set [3] and in data set [4] were 0.515 µM and 0.051 µM, respectively.

As for `FC(F)(F)c1cc(NCc2cnc(-c3ccc(Cl)s3)s2)ccn1`, in data set [1], the solubility kinetic at 5 min worked out at 43 µM (≈ 16.2 µg/mL). Also, the half-life at 1 µM in data set [2] was 2 min. The IC50 in data set [3] was above 5 µM; in data set [4] it was 0.086 µM.

On to `FC(F)(F)c1cc(SCc2cnc(-c3ccc(Oc4ccccc4)cc3)s2)ccn1`, for which the solubility kinetic at 5 min in data set [1] worked out at 7 µM (≈ 3.11 µg/mL). Moreover, in data set [2], the half-life at 1 µM was 11 min. Further, the logD in data set [5] is 4.03. Further, the figures for the IC50 in data set [3] and in data set [4] were 2.37 µM and 0.111 µM, respectively.

On to `N#Cc1cc(NCc2cnc(-c3ccc(Oc4ccccc4)cc3)s2)ccn1`, for which the solubility kinetic at 5 min in data set [1] came to 7 µM (≈ 2.69 µg/mL). For the same molecule, the half-life at 1 µM in data set [2] is 39 min. Also, in data set [5], the logD came to 3.15. Also, the IC50 is 0.29 µM in data set [3] and 0.03 µM in data set [4].

`COc1c(C)cc(-c2ncc(CNc3ccnc(C(F)(F)F)c3)s2)cc1C`: the IC50 in data set [3] and in data set [4] was above 0.005 µM throughout.

Take `CC(C)Oc1ccc(-c2ncc(CNc3cc(Cl)nc(C(F)(F)F)c3)s2)cc1Cl`: in data set [1], the solubility kinetic at 5 min was 7 µM (≈ 3.24 µg/mL). Further, in data set [2], the half-life at 1 µM came out at 28 min. The same molecule yielded a logD in data set [5] of 5.21. The IC50 came to 0.109 µM in data set [3] and 0.01 µM in data set [4].

With `COc1ccc(-c2ncc(CNc3ccnc(C(F)(F)F)c3)s2)cc1C`, the solubility kinetic at 5 min in data set [1] turned out to be 45 µM (≈ 17.1 µg/mL). Besides, the half-life at 1 µM in data set [2] worked out at 1 min. Also, the logD in data set [5] amounted to 4.02. In addition, the IC50 in data set [3] was determined as 0.576 µM; in data set [4], 0.058 µM.

On to `FC(F)(F)c1cc(NCc2ncsc2-c2ccc(Oc3ccccc3)cc2)ccn1`, for which the IC50 in data set [3] and in data set [4] was above 0.005 µM in each case.

On to `CC(C)Nc1ccc(-c2ncc(CNc3ccnc(C(F)(F)F)c3)s2)cc1`, for which, in data set [1], the solubility kinetic at 5 min came out at 39 µM (≈ 15.3 µg/mL). Also, the half-life at 1 µM in data set [2] came to 7 min. For the same molecule, the IC50 was found to be 0.5 µM in data set [3] and 0.43 µM in data set [4].

Turning to `CC(C)Oc1ccc(-c2ncc(CNc3cc(Cl)nc(Cl)c3)s2)cc1`, the solubility kinetic at 5 min in data set [1] came out at 8 µM (≈ 3.15 µg/mL). In addition, the half-life at 1 µM in data set [2] came to 37 min. In data set [5], the logD was determined as 5.62. Besides, the IC50 in data set [3] is 0.088 µM; in data set [4], 0.029 µM.

`CN(C)c1ccc(-c2ncc(CNc3ccnc(C(F)(F)F)c3)s2)cc1`: the solubility kinetic at 5 min in data set [1] worked out at 13 µM (≈ 4.92 µg/mL). In addition, the half-life at 1 µM in data set [2] stood at 45 min. Besides, the figures for the IC50 in data set [3] and in data set [4] were above 5 µM and 0.728 µM, respectively.

Take `FC(F)(F)c1cc(NCc2nnc(-c3ccc(Oc4ccccc4)cc3)o2)ccn1`: in data set [1], the solubility kinetic at 5 min was 46 µM (≈ 19 µg/mL). Also, the half-life at 1 µM in data set [2] was 23 min. Besides, in data set [5], the logD amounted to 4.12. The IC50 came out at 0.406 µM in data set [3] and 0.023 µM in data set [4].

For `CC(C)Oc1ccc(-c2ncc(CNc3cc(Cl)nc(C(F)(F)F)c3)s2)cc1`, the solubility kinetic at 5 min in data set [1] was 35 µM (≈ 15 µg/mL). Also, the half-life at 1 µM in data set [2] turned out to be 15 min. This molecule also displayed a logD in data set [5] of 5.4. For the same molecule, the IC50 in data set [3] came out at 0.087 µM; in data set [4] it was 0.008 µM.

For `N#Cc1ccc(NCc2cnc(-c3ccc(Oc4ccccc4)cc3)s2)cn1`, in data set [1], the solubility kinetic at 5 min amounted to 6 µM (≈ 2.31 µg/mL). The half-life at 1 µM in data set [2] worked out at 38 min. Also, the logD in data set [5] was 3.52. The results for the IC50 in data set [3] and in data set [4] were 0.761 µM and 0.005 µM, respectively.

In turn, `FC(F)(F)c1cc(OCc2cnc(-c3ccc(Oc4ccccc4)cc3)s2)ccn1` returned a logD in data set [5] of 3.87. Further, the IC50 in data set [3] was above 5 µM.

On to `CC(C)Oc1ccc(-c2ncc(CNc3ccnc(Cl)c3)s2)cc1`, for which the solubility kinetic at 5 min in data set [1] was found to be 22 µM (≈ 7.92 µg/mL). In addition, in data set [2], the half-life at 1 µM came out at 22 min. In addition, the logD in data set [5] stood at 5.09. In addition, the IC50 in data set [3] stood at 0.302 µM; in data set [4] it was 0.045 µM.

As for `FC(F)(F)c1cc(NCc2cc(-c3ccc(Oc4ccccc4)cc3)n[nH]2)ccn1`, in data set [1], the solubility kinetic at 5 min amounted to 15 µM (≈ 6.16 µg/mL). For the same molecule, the half-life at 1 µM in data set [2] worked out at 23 min. Besides, the logD in data set [5] worked out at 4.35. The IC50 was determined as 0.524 µM in data set [3] and 0.117 µM in data set [4].

Consider `FC(F)(F)c1ccc(NCc2cnc(-c3ccc(Oc4ccccc4)cc3)s2)cn1`, for which, in data set [1], the solubility kinetic at 5 min was 8 µM (≈ 3.42 µg/mL). In addition, in data set [2], the half-life at 1 µM worked out at 10 min. Also, the logD in data set [5] turned out to be 3.42. Also, the IC50 in data set [3] came out at 0.424 µM; in data set [4] it was 0.038 µM.

As to `FC(F)(F)c1cc(NCc2cnc(-c3ccc(Oc4ccccc4)cc3)s2)ccn1`, the solubility kinetic at 5 min in data set [1] was found to be 6 µM (≈ 2.56 µg/mL). In addition, the half-life at 1 µM in data set [2] was found to be 24 min. This molecule gave a logD in data set [5] of 3.29. Also, the IC50 in data set [3] is 0.274 µM; in data set [4] it was 0.017 µM.

In the case of `CC(C)Oc1ccc(-c2ncc(CNc3ccnc(C(F)(F)F)c3)s2)cc1`, the solubility kinetic at 5 min in data set [1] is 18 µM (≈ 7.08 µg/mL). In data set [2], the half-life at 1 µM worked out at 29 min. The molecule also displayed a logD in data set [5] of 4.01. For the same molecule, the IC50 was determined as 0.118 µM in data set [3] and 0.018 µM in data set [4].

As for `FC(F)(F)c1cc(NCc2cnc(-c3ccc(Cl)nc3)s2)ccn1`, the solubility kinetic at 5 min in data set [1] was found to be 200 µM (≈ 74.2 µg/mL). For the same molecule, in data set [2], the half-life at 1 µM was determined as 49 min. Besides, the IC50 in data set [3] is above 0.005 µM; in data set [4], 0.221 µM.

Turning to `FC(F)(F)c1cc(NCc2nnc(-c3ccc(Oc4ccccc4)cc3)[nH]2)ccn1`, the solubility kinetic at 5 min in data set [1] is 48 µM (≈ 19.7 µg/mL). Further, the half-life at 1 µM in data set [2] worked out at 23 min. In addition, the logD in data set [5] is 3.96. The IC50 in data set [3] worked out at 0.696 µM; in data set [4] it was 0.093 µM.

With `Clc1cc(NCc2cnc(-c3ccc(Oc4ccccc4)cc3)s2)ccn1`, the solubility kinetic at 5 min in data set [1] stood at 2 µM (≈ 0.788 µg/mL). For the same molecule, in data set [2], the half-life at 1 µM was found to be 55 min. This molecule had a logD in data set [5] of 4.16. The figures for the IC50 in data set [3] and in data set [4] were 0.718 µM and 0.009 µM, respectively.

For `COc1ccc(-c2ncc(CNc3ccnc(C(F)(F)F)c3)s2)cc1`, the IC50 in data set [3] amounted to 0.45 µM; in data set [4] it was 0.083 µM.

As for `FC(F)(F)c1cc(NCc2ccc(-c3ccc(Oc4ccccc4)cc3)o2)ccn1`, the solubility kinetic at 5 min in data set [1] worked out at 63 µM (≈ 25.9 µg/mL). In addition, in data set [3], the IC50 was above 5 µM.
